In US20090233966A1, “Analogues of the Azinomycins as Anti-Tumour Agents and as Prodrugs” (School of Pharmacy, University of London, priority 2005, published 2009):
Like-named read-outs stand apart in the source and are kept apart here.

Experiments:
NCl 60 cell panel = experiment: NCI 60 cell line panel antitumour activity (whole panel); type: cell-based, human; details: wide range of human tumour cell lines
From the text: Examples 6 and 7 make use of the NCl 60 cell panel. This is an in vitro cell line screening project providing direct support to the National Cancer Institute's USA Developmental Therapeutic Programme for anti cancer discovery. The methodolgy for the cell line's operation is described by Boyd et al in Drug Development Research 1995, 34, 91-109.

[1] = test system: U2-OS human osteosarcoma cell line; experiment: Cytotoxicity in U2-OS cell line; type: cell-based; details: for cytotoxicity (in words): initial cytotoxicity studies; for IC50: read-out: IC50 (nM) of compound
From the text: (§1) Initial cytotoxicity studies were in the performed U2-OS and HoeR cell lines. The U2-OS is a human osteosarcoma cell line and HoeR is a DNA minor groove binder-resistant variant of this. Both are available from the American Type Culture Collection (ATCC), Dr. Raymon H. 10801 University Boulevard, Manassas, Va., 20110-2209, USA.

[2] = test system: HoeR (Hoechst415 resistant version of U2-OS); experiment: Cytotoxicity in HoeR cell line; type: cell-based, human; details: for cytotoxicity (in words): initial cytotoxicity studies; for IC50: read-out: IC50 (nM) of compound
From the text: as §1

[3] = test system: wild type CHO cells (absent in CYP3A4); experiment: Cytotoxicity on wild type CHO cells; type: cell-based; details: FIG. 2(b)
CYP3A4 CHO cells = experiment: Cytotoxicity on CHO cells transfected with CYP3A4; type: cell-based; details: FIG. 2(b)

COc1cc(C(=O)O[C@H](C(=O)NCCN2CCCC(Cl)C2)C2(C)CO2)c2cccc(C)c2c1 (some centres unmarked)
antitumour activity in the NCl 60 cell line panel (in words) (NCl 60 cell panel): excellent anti-tumour activity

COc1cc(C(=O)OC(C(N)=O)[C@]2(C)CO2)c2ccccc2c1 (stereo partly drawn) [(2S, 3R)-1]
cytotoxicity (in words) [1]: good activity | IC50 [1]: 120 nM | cytotoxicity (in words) [2]: good activity | IC50 [2]: 121 nM

COc1cc(C(=O)OC(C(N)=O)[C@]2(C)CO2)c2ccccc2c1 (stereo partly drawn) [(2R, 3R)-1]
cytotoxicity (in words) [1]: good activity | IC50 [1]: 40 nM | cytotoxicity (in words) [2]: good activity | IC50 [2]: 40 nM

COc1cc(C(=O)OC(C(N)=O)[C@]2(C)CO2)c2ccccc2c1 (stereo partly drawn) [(2R, 3S)-1]
cytotoxicity (in words) [1]: good activity | IC50 [1]: 40 nM | cytotoxicity (in words) [2]: good activity | IC50 [2]: 45 nM

C=C(C)[C@@H](OC(=O)c1cc(OC)cc2c(C)cccc12)C(N)=O [(2R)-2]
IC50 ([1]; Homo sapiens, U2OS): > 10000 nM | cytotoxicity (in words) [1]: not cytotoxic | IC50 ([2]; Homo sapiens, U2OS): > 10000 nM | cytotoxicity (in words) [2]: not cytotoxic

COc1cc(C(=O)OC(C(N)=O)[C@]2(C)CO2)c2ccccc2c1 (stereo partly drawn) [(2S, 3S)-1]
cytotoxicity (in words) [1]: good activity | IC50 [1]: 15 nM | cytotoxicity (in words) [2]: good activity | IC50 [2]: 14 nM | cytotoxicity (in words) [3]: high cytotoxicity | cytotoxicity (in words) (CYP3A4 CHO cells): high cytotoxicity
